For 39 compounds, IC50 results are on record in patent US6384080B1, “Anthranilic acid derivatives as inhibitors of the cGMP-phosphodiesterase” (Fujisawa Pharmaceutical Co., Ltd., priority 1998, dated 2002).

In general, IC50 refers to the concentration at which inhibition is half-maximal.

Structures can show the parent of a compound that is named as a salt. A value given as a limit tells only on which side of the number the result lay.

The first assay deals with T1, human platelet PDE-V (Homo sapiens, UniProt O76074).
T1 construct: Human platelet cGMP-PDE was separated from other isozymes in human platelets; from tissue; host or cells: human platelets
The assay is described as follows: cGMP-Phosphodiesterase (PDE) assay, enzymatic inhibitory test. The class given is biochemical.
Settings: not given
The protocol:
cGMP-Phosphodiesterase (PDE) Assay
Human platelet cGMP-PDE was separated from other isozymes in human platelets by a modification of the method of Thompson et. al. (see Cyclic Nucleotide Phosphodiesterase (PDE), in Methods of Enzymatic analysis, Vol 4, p127-234, 1984). In enzyme inhibition assays, the test compounds were dissolved in DMSO and then diluted with assay buffer (50 mM Tris-HCl, 0.077 mg/ml dithiothreitol and 10 mg/ml snake venom, 1 mM EGTA, pH 8.0), at final concentrations ranging from 10^−10 to 10^−6 M. Assays were performed at 0.1 μM substrate ([^3H]-cGMP) concentration, at 30° C. for 10 minutes using enzyme dilutions which gave 10-20% hydrolysis of substrate. Each assay was initiated by addition of substrate and terminated by addition of anion exchange resin (Dowex® 1-X8, 250 mg/mg) followed by centrifugation for 10 minutes (3000 rpm, at 4° C.). Radioactivity of supernatant (^3H-GMP) was assayed by liquid scintillation counting.
Consider `O=C(NCc1ccc([N+](=O)[O-])cc1)c1cc([N+](=O)[O-])ccc1NC1CCCC1` [2-(Cyclopentylamino)-5-nitro-N-(4-nitrobenzyl)benzamide], for which the IC50 is less than 0.01 µM. Same read-out and setting: as for `O=C(NCc1ccc2c(c1)OCO2)c1cc([N+](=O)[O-])ccc1NC(CCl)CCl` [2-[2-Chloro-1-(chloromethyl)ethylamino]-5-nitro-N-(1,3-benzodioxol-5-ylmethyl)benzamide], the figure is less than 0.01 µM.

The assay is the same for the next values; noted with them: human platelet PDE-V; 0.1 μM [3H]-cGMP substrate, 30° C., 10 minutes; read-out: Inhibitory activity IC50.
`O=C(NCc1ccccc1)c1cc([N+](=O)[O-])ccc1N[C@@H]1CCC[C@H]1O` (relative stereo) [N-Benzyl-2-(trans-2-hydroxycyclopentylamino)-5-nitrobenzamide]: the IC50 was less than 0.01 µM. Same read-out and setting: the result for `O=C(NCc1ccc2c(c1)OCO2)c1cc([N+](=O)[O-])ccc1NC1CCS(=O)(=O)CC1` [2-(1,1-dioxotetrahydro-2H-thiopyran-4-ylamino)-5-nitro-N-(1,3-benzodioxol-5-ylmethyl)benzamide] reads less than 0.01 µM.

Consider `COc1ccc(CNC(=O)c2cc([N+](=O)[O-])ccc2NC2CCN(C(=N)N)CC2)cc1OC` [2-(1-Amidinopiperidin-4-ylamino)-N-(3,4-dimethoxybenzyl)-5-nitrobenzamide hydrochloride], for which the IC50 was less than 0.01 µM. The same measure, in the same setting: as for `O=C(NCc1ccc2c(c1)OCO2)c1cc([N+](=O)[O-])ccc1NC1CCN(Cc2ccccc2)CC1` [2-(1-Benzylpiperidin-4-ylamino)-5-nitro-N-(1,3-benzodioxol-5-ylmethyl)benzamide], the figure is less than 0.01 µM; as for `O=CN1CCC(Nc2ccc([N+](=O)[O-])cc2C(=O)NCc2ccc3c(c2)OCO3)CC1` [2-(1-Formyl-4-piperidinylamino)-5-nitro-N-(1,3-benzodioxol-5-ylmethyl)benzamide], less than 0.01 µM; as for `CC(=O)N1CCC(Nc2ccc([N+](=O)[O-])cc2C(=O)NCc2ccc3c(c2)OCO3)CC1` [2-(1-acetyl-4-piperidinylamino)-5-nitro-N-(1,3-benzodioxol-5-ylmethyl)benzamide], less than 0.01 µM.

Regarding `CN1CCC(Nc2ccc([N+](=O)[O-])cc2C(=O)NCc2ccc3c(c2)OCO3)CC1` [2-(1-methyl-4-piperidinylamino)-5-nitro-N-(1,3-benzodioxol-5-ylmethyl)benzamide], the IC50 is less than 0.01 µM.

Consider `NC(=O)C1CCC(Nc2ccc([N+](=O)[O-])cc2C(=O)NCc2ccc3c(c2)OCO3)CC1` (stereo not drawn) [2-(4-carbamoylcyclohexylamino)-5-nitro-N-(1,3-benzodioxol-5-ylmethyl)benzamide], for which the IC50 was less than 0.01 µM.

For the compound `O=C(NCc1ccc2c(c1)OCO2)c1cc([N+](=O)[O-])ccc1NC1CCC(C(=O)O)CC1` (stereo not drawn) [2-(4-carboxycyclohexylamino)-5-nitro-N-(1,3-benzodioxol-5-ylmethyl)benzamide], the IC50 is less than 0.01 µM. The same measure, in the same setting: as for `O=C(NCc1cccs1)c1cc([N+](=O)[O-])ccc1NC1CCCC1` [2-(Cyclopentylamino)-5-nitro-N-(2-thienylmethyl)benzamide], the figure is less than 0.01 µM.

On to `O=C(NCCCc1ccccc1)c1cc([N+](=O)[O-])ccc1NC1CCCC1` [2-(Cyclopentylamino)-5-nitro-N-(3-phenylpropyl)benzamide], for which the IC50 was less than 0.01 µM. The same measure, in the same setting: the result for `O=C(NCc1ccc(C(F)(F)F)cc1)c1cc([N+](=O)[O-])ccc1NC1CCCC1` [2-(Cyclopentylamino)-5-nitro-N-[4-(trifluoromethyl)benzyl]benzamide] reads less than 0.01 µM. On the same count and under the same terms, the result for `O=C(NCCc1ccccc1)c1cc([N+](=O)[O-])ccc1NC1CCCC1` [2-(Cyclopentylamino)-5-nitro-N-phenethylbenzamide] reads less than 0.01 µM. On the same count and under the same terms, as for `O=C(NCc1ccc(Cl)cc1Cl)c1cc([N+](=O)[O-])ccc1NC1CCCC1` [2-(Cyclopentylamino)-N-(2,4-dichlorobenzyl)-5-nitrobenzamide], the figure is less than 0.01 µM; as for `O=C(NCc1ccc(Cl)c(Cl)c1)c1cc([N+](=O)[O-])ccc1NC1CCCC1` [2-(Cyclopentylamino)-N-(3,4-dichlorobenzyl)-5-nitrobenzamide], less than 0.01 µM. For `O=C(NCc1ccc(F)c(F)c1)c1cc([N+](=O)[O-])ccc1NC1CCCC1` [2-(Cyclopentylamino)-N-(3,4-difluorobenzyl)-5-nitrobenzamide], the IC50 is less than 0.01 µM.

As for `O=C(NCc1ccc(F)cc1)c1cc([N+](=O)[O-])ccc1NC1CCCC1` [2-(Cyclopentylamino)-N-(4-fluorobenzyl)-5-nitrobenzamide], the IC50 was less than 0.01 µM. Still for that read-out and setting: the result for `COc1cc(CNC(=O)c2cc([N+](=O)[O-])ccc2NC2CCCC2)ccc1O` [2-(Cyclopentylamino)-N-(4-hydroxy-3-methoxybenzyl)-5-nitrobenzamide] reads less than 0.01 µM; that for `COc1ccc(CNC(=O)c2cc([N+](=O)[O-])ccc2NC2CCCC2)cc1` [2-(Cyclopentylamino)-N-(4-methoxybenzyl)-5-nitrobenzamide], less than 0.01 µM; that for `Cc1ccc(CNC(=O)c2cc([N+](=O)[O-])ccc2NC2CCCC2)cc1` [2-(Cyclopentylamino)-N-(4-methylbenzyl)-5-nitrobenzamide], less than 0.01 µM.

As to `O=C(NCc1ccco1)c1cc([N+](=O)[O-])ccc1NC1CCCC1` [2-(Cyclopentylamino)-N-furfuryl-5-nitrobenzamide], the IC50 is less than 0.01 µM. The same measure, in the same setting: the result for `CCCCCCNC(=O)c1cc([N+](=O)[O-])ccc1NC1CCCC1` [2-(Cyclopentylamino)-N-hexyl-5-nitrobenzamide] reads less than 0.01 µM. The same measure, in the same setting: the result for `COc1ccc(CNC(=O)c2cc([N+](=O)[O-])ccc2N[C@H]2CC[C@@H](NC=O)CC2)cc1OC` [2-(cis-4-Formamidocyclohexylamino)-N-(3,4-dimethoxybenzyl)-5-nitrobenzamide] reads less than 0.01 µM. For `COCCOc1ccc(CNC(=O)c2cc([N+](=O)[O-])ccc2N[C@H]2CC[C@@H](O)CC2)cc1OC` [2-(cis-4-Hydroxycyclohexylamino)-N-[3-methoxy-4-(2-methoxyethoxy)benzyl]-5-nitrobenzamide], the half-maximal inhibitory concentration (IC50) is less than 0.01 µM.

Take `O=C(NCc1ccc2c(c1)OCO2)c1cc([N+](=O)[O-])ccc1N[C@H]1CC[C@@H](Cl)CC1` [2-(cis-4-chlorocyclohexylamino)-5-nitro-N-(1,3-benzodioxol-5-ylmethyl)benzamide]: the IC50 was less than 0.01 µM. Still for that read-out and setting: the result for `CC(C)(C)Nc1ccc([N+](=O)[O-])cc1C(=O)NCc1ccc2c(c1)OCO2` [2-(tert-Butylamino)-5-nitro-N-(1,3-benzodioxol-5-ylmethyl)benzamide] reads less than 0.01 µM.

As to `CSc1ccc(CNC(=O)c2cc([N+](=O)[O-])ccc2N[C@H]2CC[C@H](O)CC2)cc1` [2-(trans-4-Hydroxycyclohexyl)amino-N-[4-(methylthio)benzy]-5-nitrobenzamide], the IC50 is less than 0.01 µM. Turning to `CCOC(=O)N1CCC(Nc2ccc([N+](=O)[O-])cc2C(=O)NCc2ccc3c(c2)OCO3)CC1` [2-[1-(Ethoxycarbonyl)piperidin-4-ylamino]-5-nitro-N-(1,3-benzodioxol-5-ylmethyl)benzamide], the IC50 is less than 0.01 µM. Still for that read-out and setting: as for `O=C(NCc1ccc2c(c1)OCO2)c1cc([N+](=O)[O-])ccc1NC1(CO)CCCC1` [2-[1-(Hydroxymethyl)cyclopentylamino]-5-nitro-N-(1,3-benzodioxol-5-ylmethyl)benzamide], the figure is less than 0.01 µM; as for `CC(C)(C)OC(=O)N1CCC(Nc2ccc([N+](=O)[O-])cc2C(=O)NCc2ccc3c(c2)OCO3)CC1` [2-[1-(tert-Butoxycarbonyl)-4-piperidinylamino]-5-nitro-N-(1,3-benzodioxol-5-ylmethyl)benzamide], less than 0.01 µM; as for `COc1ccc(CNC(=O)c2cc([N+](=O)[O-])ccc2NC2CCN(C(=O)OC(C)(C)C)CC2)cc1OC` [2-[1-(tert-Butoxycarbonyl)piperidin-4-ylamino]-N-(3,4-dimethoxybenzyl)-5-nitrobenzamide], less than 0.01 µM. On to `COc1ccc(CNC(=O)c2cc([N+](=O)[O-])ccc2NC2CCN(C(=NC(=O)OC(C)(C)C)NC(=O)OC(C)(C)C)CC2)cc1OC` [2-[1-[1,3-Bis(tert-butoxycarbonyl)amidino]piperidin-4-ylamino]-N-(3,4-dimethoxybenzyl)-5-nitrobenzamide], for which the IC50 was less than 0.01 µM. Consider `COc1cc(CNC(=O)c2cc([N+](=O)[O-])ccc2NC(CO)CO)ccc1C` [2-[2-Hydroxy-1-hydroxymethyl)ethylamino]-N-(3-methoxy-4-methylbenzyl)-5-nitrobenzamide], for which the IC50 was less than 0.01 µM.

With `O=C(OC1CCC(Nc2ccc([N+](=O)[O-])cc2C(=O)NCc2ccccc2)C1)c1ccccc1` (stereo not drawn) [2-[3-(Benzoyloxy)cyclopentylamino]-N-benzyl-5-nitrobenzamide], the IC50 was less than 0.01 µM. The same measure, in the same setting: the result for `COC(=O)C1CCC(Nc2ccc([N+](=O)[O-])cc2C(=O)NCc2ccc3c(c2)OCO3)CC1` (stereo not drawn) [2-[4-(Methoxycarbonyl)cyclohexylamino]-5-nitro-N-(1,3-benzodioxol-5-ylmethyl)benzamide] reads less than 0.01 µM; that for `C[C@@H](O)[C@@H](CO)Nc1ccc([N+](=O)[O-])cc1C(=O)NCc1ccc2c(c1)OCO2` [2-[(1R, 2R)-2-Hydroxy-1-(hydroxymethyl)propylamino]-5-nitro-N-(1,3-benzodioxol-5-ylmethyl)benzamide], less than 0.01 µM; that for `COc1ccc(CNC(=O)c2cc([N+](=O)[O-])ccc2N[C@H](C(N)=O)[C@@H](C)O)cc1OC` [2-[(1S, 2R)-1-(Carbamoyl)-2-hydroxypropylamino]-N-(3,4-dimethoxybenzyl)-5-nitrobenzamide], less than 0.01 µM.
